# Measured values from patent US4839466A, “Insulin activity messengers” (The Rockefeller University, priority 1987, dated 1989).
# Assays:
# BC3 Hl cells = assay: Insulin-stimulated labeling/hydrolysis of glycolipid (PI-glycan) precursor and water soluble products in BC3 Hl cells; format: cell-based, murine
# Description: FIG. 7--SAX HPLC of Radiolabeled Mediators from Insulin Treated Cells. BC3 Hl cells were cultured at 37° C. in Dulbecco's Minimal Essential Medium in the presence of 20% NU serum (Collaborative Research) on collagen coated 10 mm miniwells. Cells (1×10^6 /well) were preincubated with 10 uCi (A) [2,6^3 H]myoinositol or (B) [1,6^3 H]glucosamine (New England Nuclear) for 20 hours in the presence of 20% Nu Serum. Insulin was added to cells in monolayer in serum free media at a final concentration of 10 nM. Reactions were terminated by removal of media and addition of 1 ml chloroform/methanol/1N HCl (200:100:1), followed by addition of 0.5 ml 10 mM formic acid. Organic and aqueous phases were separated by centrifugation at 500 x g for 5 min.
# The water soluble labeled products were purified by a modification of a previously described protocol for purification of cAMP phosphodiesterase (PDE) modulators. The aqueous phases were chromatographed on DEAE-Cellulose, eluted with 0.25 TEA-formate, pH 3.75. This fraction was eluted through a C-18 reversed phase sepak in the same buffer. Following lyophilization, the solution was eluted through Dowex 50WX-4 in 50 mM TEA-formate. pH 3.0. After exposure to activated charcoal, samples were chromatographed on an SAX HLPC column (Whatman), eluted with a linear, 15 minute gradient of 60% methanol (A) to 0.5M TEA-formate, pH 3.75 (B) at 1 ml/minute. One ml fractions were counted. The two peaks of insulin stimulated radioactivity coeluted with similarly purified, myocyte derived PDE modulating activities.
# FIG. 9--Thin Layer Chromatography of the Radiolabeled Precursor from Insulin Treated Cells. (A) [^3 H]inositol and B) [^3 H]glucosaminelabeled cells were treated with or without 10 nM insulin. Following extraction and phase separation, the organic phase were dried under N2, resuspended in chloroform/methanol/H2 O (9:7:2); and spotted on oxalate impregnated Silica gel G plates. These were twice developed in chloroform/acetone/methanol/glacial acetic acid/H2 O (10:4:2:2:1). One cm regions were scraped and radioactivity determined by scintillation counting. Phosphoinositides were identified by iodine staining of standards.
# FIG. 11--Time Course of Precursor Hydrolysis by Insulin. Cells prelabeled with [^3 H]inositol were treated with 10 nM insulin for the designated intervals. Cells were extracted and phase separated as detailed in FIG. 7. Aqueous phases were chromatographed up to and including the SAX HPLC step (upper panel). Results reflect counts from a combination of Peaks I and II. The ratio of counts in these peaks were unchanged over the time course. The precursor residing in the organic phases was identified by the peak on TLC with an Rf =0.22, corresponding to the species depleted by PI-PLC (FIG. 10).
# Following preincubations with the appropriate isotopes, cells were resuspended in DMEM without serum and treated with 10 nM insulin at the designated intervals. Reactions were terminated by the addition of 1 ml chloroform/methanol/1N HCl (200:100:1), followed by 0.5 ml 10 mM formic acid. Following centrifugation at 500 x g for 5 min., the upper phase was discarded. For phospholipid analyses, the lower, organic phase was dried under N2, resuspended in chloroform/methanol/H2 O (9:7:2) and spotted on oxalate impregnated silica gel G plates. These were sequentially developed in chloroform/acetone/methanol/glacial acidic acid/H2 O (10:4:2:2:1) and chloroform/methanol/4N NH4 OH (45:35:10). One cm regions were scraped and eluted with chloroform/methanol (2:1) and counted. Phosphoinositide standards were identified by iodine staining.
# cAMP phosphodiesterase = assay: Generation of an enzyme modulator from liver plasma membranes, cAMP phosphodiesterase readout; format: biochemical, rat
# Description: Purification of the Enzyme Modulator. Bovine liver particulate fraction was prepared as described previously [Saltiel A. R., (1984) "Preparation and Characterization of Putative Insulin Mediators from Liver", METHODS IN DIABETES […], eds. J. Larner, S. Pohl, I:73]. Solutions were incubated in 5 mM ammonium bicarbonate, pH 7.4 with 10 nM insulin or 1 ug/ml PI-PLC as described in the figure legends. Following incubation, solutions were acidified to pH 4.0 and centrifuged at 35,000 x g for 20 minutes. Resulting supernatants were extracted with chloroform/methanol (2:1). The upper aqueous phase was aspirated and methanol was evaporated. Enzyme modulating activities were purified as described in Publication No. 6 listed earlier herein. Briefly, the extract was chromatographed on DEAE-Cellulose and eluted with 0.25M triethylamine (TEA)-formate, pH 3.75. This was followed by chromatography on C-18 reversed phase resin, in the same buffer, followed by Dowex 50W X-4 in 50 mM TEA-formate, pH 3.0. The resulting eluate was lyophilized, resuspended in 50 mM TEA-formate, pH 4.5 and sequentially chromatographed on QAE-Sephadex, SAX HPLC and a P-2 gel filtration column. Only the cyclic inositol phosphate derivative residing in Peak I was examined.
# Enzyme Assays. The low Km cAMP PDE was assayed in a rat adipocyte particulate fraction as previously described [Saltiel, A. R., Steigerwalt,R. W., (1986) "Purification of Putative Insulin-Sensitive cAMP Phosphodiesterase or its Catalytic Domain From Rat Adipocytes", DIABETES, 35:698] and as later modified in Publication No. 6. Activity was linear throughout 20 min. and proportional to protein concentration. Only the low Km species of the enzyme was present in this fraction. PDH activity was assayed in liver mitoplasts after preincubation with ATP as previously described [Saltiel et al., (1982) PROC. NATL. ACAD. SCI. U.S.A., 79:3513.]. Adenylate cyclase activity was also assayed in purified adipocyte plasma membranes. For all enzyme assays, variability was less than 5%.
# Liver membranes were treated with or without 10 nM insulin or 1 ug/ml PI-PLC for 10 min. at 37° C. Following cetrifugation, the supernatants were extracted and purified up to and including the SAX HPLC step. Purified extracts were added to enzyme assays at a final dilution of 1:10. Enzyme activities were assayed with no additions or after addition of purified extracts from control, insulin or PIPPLC treated membrane. Percent of basal activity is expressed in parentheses. ^1 expressed as pmoles/mg protein-min. ^2 expressed as nmoles/mg protein-min.
substance,measurement,setting,value
Insulin: monocomponent bovine insulin,"production of [3H]inositol containing products (Peaks I and II combined), share of the maximal effect","BC3 Hl cells; 10 nM insulin, after 30 sec",Seventy
same,increase of [3H]inositol radioactivity in the precursor over control levels,"BC3 Hl cells; 10 nM insulin, after the initial decrease",60%
same,decrease in [3H]inositol counts in the precursor,"BC3 Hl cells; 10 nM insulin, at 30 sec",20%
same,decrease in [3H]inositol labeling of the PI-glycan,"BC3 Hl cells; Example IV, after 30 seconds of insulin exposure",20%
same,decrease in [3H]myristate labeling of the PI-glycan,"BC3 Hl cells; Example IV, by 1 min. of insulin",60%
same,gradual increase in [3H]inositol counts of the PI-glycan,"BC3 Hl cells; Example IV, following the initial decrease",40%
same,time until [3H]myristate labeling of the PI-glycan returned to basal levels,"BC3 Hl cells; Example IV, insulin",20 to 30 min
same,increase of [3H]glucosamine incorporation in the precursor glycolipid peak,"BC3 Hl cells; insulin 10 nM for 10 min., TLC",approximately 40%
same,increase of [3H]inositol incorporation in the precursor glycolipid peak,"BC3 Hl cells; insulin 10 nM for 10 min., TLC",approximately 40%
same,cAMP Phosphodiesterase activity,"cAMP phosphodiesterase; extract of liver membranes treated with 10 nM insulin or 1 ug/ml PI-PLC 10 min. 37° C., purified to SAX HPLC, dilution 1:10, no addition 61.7±4.2, control membranes 78.5±5.6",146±3 pmoles/mg protein-min.
same,stimulation of PDE by the substance generated,cAMP phosphodiesterase; membranes exposed to 10 nM insulin 10 min.,2-3 fold
